Measurements published in PubChem BioAssay (NCI).
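Following 48 hours of exposure in 96-well plates, responses at five concentrations were used to interpolate endpoints linearly. Here, GI50 denotes the concentration required for 50% inhibition of growth. TGI marks complete inhibition of growth.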

Assays:
Test in all cases: NCI-60 cell line screen, 48 h
DLD-1 colon = tested on: DLD-1 colon
DMS 114 small cell lung = tested on: DMS 114 small cell lung
KM12 colon = tested on: KM12 colon
KM20L2 colon = tested on: KM20L2 colon
LXFL 529 NSCLC = tested on: LXFL 529 NSCLC
M19-MEL melanoma = tested on: M19-MEL melanoma
OVCAR-3 ovarian = tested on: OVCAR-3 ovarian
OVCAR-5 ovarian = tested on: OVCAR-5 ovarian
RXF-631 renal = tested on: RXF-631 renal
SNB-78 CNS = tested on: SNB-78 CNS
UACC-257 melanoma = tested on: UACC-257 melanoma
DMS 273 small cell lung = tested on: DMS 273 small cell lung
HOP-18 NSCLC = tested on: HOP-18 NSCLC
NCI-H23 lung = tested on: NCI-H23 lung
XF 498 CNS = tested on: XF 498 CNS

| SMILES | TGI (DLD-1 colon) [µM] | TGI (DMS 114 small cell lung) [µM] | TGI (KM12 colon) [µM] | TGI (KM20L2 colon) [µM] | TGI (LXFL 529 NSCLC) [µM] | TGI (M19-MEL melanoma) [µM] | TGI (OVCAR-3 ovarian) [µM] | TGI (OVCAR-5 ovarian) [µM] | TGI (RXF-631 renal) [µM] | TGI (SNB-78 CNS) [µM] | TGI (UACC-257 melanoma) [µM] | TGI (DMS 273 small cell lung) [µM] | TGI (HOP-18 NSCLC) [µM] | TGI (NCI-H23 lung) [µM] | TGI (XF 498 CNS) [µM] | GI50 (DMS 114 small cell lung) [µM] |
| --- | --- | --- | --- | --- | --- | --- | --- | --- | --- | --- | --- | --- | --- | --- | --- | --- |
| N#CC(/C(=N\NC(=O)c1ccncc1)C(=O)Nc1ccc([N+](=O)[O-])cc1[N+](=O)[O-])c1nc(-c2ccc(Br)cc2)cs1 (stereo not drawn) | > 100 | > 100 | > 100 | > 100 | > 100 | > 100 | > 100 | > 100 | > 100 | > 100 | > 100 |  |  |  |  |  |
| CC(C)C1C(=O)NC(CO)Cc2c[nH]c3c(C(c4c[nH]c5ccccc45)C(O)CO)ccc(c23)N1C (stereo not drawn) | > 100 |  | > 100 |  | > 100 | > 100 | > 100 |  |  | > 100 | > 100 | > 100 | > 100 | > 100 | > 100 |  |
| O=c1c(-c2ccccc2)c2oc(c1-c1ccccc1)CS(=O)(=O)CCC2 | 58.8 | > 100 | > 100 |  | 33.7 | 30.7 | 73 |  |  |  | > 100 | 58.3 | > 100 | 38.9 | 24.7 |  |
| CCOC(=O)C[C@@H](C)[C@]1(C(=O)OC)CCCC1=O | > 71.3 | > 58.9 | > 100 | > 100 | > 100 | > 100 | > 100 | > 100 |  | > 100 | > 100 | > 100 | > 100 | > 100 | > 100 |  |
| O=C(/C=C/c1ccc(O)c(O)c1)OC1C[C@@](O)(C(=O)O)C[C@@H](O)[C@H]1OC(=O)/C=C/c1ccc(O)c(O)c1 (stereo partly drawn) | > 100 | > 100 | > 100 | > 100 | > 100 | > 100 | > 100 | > 100 |  | > 100 | > 100 | > 100 | > 100 | > 100 | > 100 |  |
| COc1ccc(/C=N/N=C(\N)NO)c(Cl)c1O | > 100 | > 100 | > 100 |  | > 100 | 53.3 | > 100 | 6.86 |  | > 100 | > 100 |  | 54.2 | 63.7 |  |  |
| Cc1ccc2[nH]c3c(C)c4c(c(C)c3c2c1)CN(C)C=C4 | 13.1 | 2.1 | 2.4 | 11.8 | 2.35 |  | 14.8 | 9.41 | 8.75 | 3.41 | 8 | 3.09 | 26.9 | 2.3 | 6.06 | 0.437 |
| O=C(CSc1nnc(Cc2ccccc2)o1)Nc1cccc(Cl)c1 | > 100 |  | > 100 | > 100 | > 100 | > 100 | > 100 | > 100 |  | > 100 | > 100 | > 100 | > 100 | > 100 |  |  |
| O=C1OC2C(O)COC2(O)C1(O)C(C[N+](=O)[O-])c1ccc(Cl)cc1 (stereo not drawn) | 3.93 | 9.99 | 18.3 | 6.17 | 4.07 | 6.84 | 21.5 | 32.6 |  | 71.6 | 17.4 | 9.87 | 21.6 | 18.6 |  |  |
| CCOC(=O)C1(C#N)C(c2ccccc2)CC(O)(c2ccc([N+](=O)[O-])cc2)C(C(=O)c2ccc([N+](=O)[O-])cc2)C1c1ccccc1 (stereo not drawn) | > 100 | > 100 | > 100 | > 100 | > 100 | > 100 | > 100 | > 100 |  | > 100 | > 100 | > 100 | > 100 | > 100 | > 100 |  |
| CC(=O)NC(CCCCN(Cc1ccccc1)C(=O)NCCCl)C(=O)NCc1ccccc1 (stereo not drawn) | > 100 | > 100 | > 100 | > 100 | > 100 |  | > 100 |  | > 100 |  | > 100 | > 100 | > 100 | > 100 |  |  |
| Cc1c(-c2ccccc2)[nH]c2ccc(Cl)cc2c1=O |  |  | 28.1 |  |  |  | 72 | > 100 |  |  | > 100 |  |  | > 100 |  |  |
| COc1c(C)c2c(c3c1c(=O)c1ccccc1n3C)C=CC(C)(C)O2 | > 100 | 43 | 60.9 | > 100 | 94.4 | 82.4 | 41 | 87.6 |  | 72.9 | 76.6 | 38 | 97.8 | > 100 | 55.7 |  |
| C/C(=C/c1ccccc1)CN(C(=O)/C=C\Sc1ccccc1)C(C)(C)C |  |  | > 100 |  |  |  | > 100 | > 100 |  |  | > 100 |  |  | > 100 |  |  |
| CC1(C)C=Cc2c(cc3oc4ccc5c(c4c(=O)c3c2O)C=CC(C)(C)O5)O1 |  |  | > 100 |  |  |  | > 100 | > 100 |  |  | > 100 |  |  | > 100 |  |  |
| CC(C)(Br)C(Br)CCC(=CCBr)CBr (mixture of isomers) | 11.2 |  | 10.2 |  | 11.6 | 4.2 |  | 37.2 |  | 17.1 | 15.6 | 3.51 | 31.9 | 12.1 |  |  |
| CCOc1cc2ccc3c4cc(OC)c(OC)cc4cnc3c2cc1OCC | > 100 | > 100 | > 100 | > 100 | > 100 | > 100 | > 100 | > 100 |  | > 100 | > 100 |  | > 100 | > 100 | > 100 |  |
| O=C(NCCc1ccccc1)[C@H]1CCCC[C@@H]1CCO |  |  | > 100 |  |  |  | > 100 | > 100 |  |  | > 100 |  |  | > 100 |  |  |
| O=c1cc(-c2ccccc2)oc2cc(OCC(O)COc3ccc4c(=O)cc(-c5ccccc5)oc4c3)ccc12 | > 100 | > 100 | > 100 | > 100 | > 100 | > 100 | > 100 | > 100 |  | 58.9 | > 100 | > 100 | > 100 | > 100 | 48.1 |  |
| COc1cc(C2SCC(=O)N2Cc2ccccc2)cc(OC)c1OC (stereo not drawn) |  |  | > 100 |  |  |  | > 100 | > 100 |  |  | > 100 |  |  | > 100 |  |  |
| Cc1ccc2nc(N/N=C/c3ccc(C)s3)cc(C)c2c1 |  |  | 16.1 |  |  |  | 17.4 | 22 |  |  | 19.9 |  |  | 22 |  |  |
| CC1=[N+]([O-])C(C)(C)N(N=O)C1(C)C |  |  | > 10 |  |  |  | > 10 | > 10 |  |  | > 10 |  |  | > 10 |  |  |
| NC(=O)NC(=O)CCC(NS(=O)(=O)c1ccccc1)C(=O)NC(N)=O (stereo not drawn) |  |  | > 100 |  |  |  | > 100 | > 100 |  |  | > 100 |  |  | > 100 |  |  |
| O=C(Nc1cc2c(=O)[nH]c3ccccc3c2oc1=O)c1cnccn1 |  |  | > 100 |  |  |  | > 100 | > 100 |  |  | > 100 |  |  | > 100 |  |  |
| CCCc1cc(=O)oc2c(C=O)c(O)cc(O)c12 |  |  | 61.2 |  |  |  | 44.3 | 74.4 |  |  | 65.2 |  |  | 48 |  |  |
| CC(=O)OCC1OC(n2c(C#N)cc(=O)[nH]c2=O)CC1OC(C)=O (stereo not drawn) |  |  | > 100 |  |  |  | > 100 | > 100 |  |  | > 100 |  |  | > 100 |  |  |
| O=C1Oc2ccccc2C(=O)/C1=C/N1C(=O)/C(=C/c2ccc3c(c2)OCO3)SC1=S |  |  | 32 |  |  |  | 10.9 | 30.2 |  |  | 51.5 |  |  | 30.5 |  |  |
| C1=Nc2ccc(cc2)N=Cc2ccccc2OCc2cccc(n2)COc2ccccc21 |  |  | > 100 |  |  |  | > 100 | > 100 |  |  | > 100 |  |  | > 100 |  |  |
